The values that follow come from paper PMC4865845, “A human genome-wide loss-of-function screen identifies effective chikungunya antiviral drugs” (Nature Communications, 2016).

For series [1], the system named is CHIKV. Description: microbe, parasite or virus in culture. Format: cell-based, chikungunya virus. Conditions: HEK-293 cells pretreated with dilutions of each drug, CHIKV-GFP, 18 h p.i.
The subject of series [2] is CHIKV C21. It is filed as in vivo, C57BL/6 mice. Particulars: adult mice pretreated at least 3 days (pimozide 20 mg kg−1 per os; TOFA 25 mg kg−1 i.p.), 18 h p.i.
Series [3] deals with herpes simplex type 1 strain KOS (HSV-1). Format: cell-based, herpes simplex virus 1. Particulars: HEK-293 cells pretreated 2 h, Fig. 4.
Series [4] has as its system CHIKV C21. Briefly: Intradermal CHIKV infection model of neonatal mice. Particulars: for impact on mouse growth: neonatal mice.
Series [5] relates to CHIKV C21. Description: Quantitative RT-PCR of cell- and supernatant-associated vRNA. Conditions: HeLa; for vRNA synthesis (cell-associated vRNA) / viral release in the supernatants (supernatant-associated vRNA): CHIKV C21 MOI 50 for 1 h, then drug 7 h: cerulenin 50 μM, TOFA 25 μM, pimozide 10 μM, W7 20 μM, tivozanib 5 μM; for vRNA replication, delayed treatment / viral release, delayed treatment: CHIKV-infected, drugs from 6 to 8 h p.i. Format: cell-based, chikungunya virus.

The subject of series [6] is HEK-293 cells. Briefly: Cell viability, Cell Proliferation Reagent WST-1. It is filed as cell-based, human. Particulars: read-out: WST-1 IC50. The method, then:
To exclude the possible cytotoxic effects, all compounds were additionally tested using the ‘Cell Proliferation Reagent WST-1' (Roche Diagnostics). HEK-293 cells were treated with the same concentrations of the various substances and 18 h later WST-1 was added. Readout was conducted using the EnVision Multilabel Reader (PerkinElmer).

The subject of series [7] is HeLa cells. Briefly: Cell viability, CellTiter-Glo kit. Particulars: end of the 1 h infection + 7 h treatment experiment.
Series [8] has as its target CLK1 (Homo sapiens, UniProt P49759). Description: CLK1 inhibition by capillary electrophoresis in a microfluidic chip system (LabChip3000). It is filed as biochemical.
For series [9], the system named is HeLa cells. Briefly: Real-time cell toxicity assay (xCELLigence).
Series [10] relates to CHIKV replicon. Description: CHIKV replicon dual-luciferase assay (genomic and subgenomic vRNA expression). Format: cell-based, chikungunya virus. Particulars: HeLa cells, inhibitor from 1 h p.i., read 8 h p.i. On the technique in general: In antiviral work, replicon cells carry a viral genome segment that copies itself.
The subject of series [11] is CHIKV C21. Description: Single-cycle CHIKV C21 infection, drug 2 h before or 2 h after infection (flow cytometry of capsid; supernatant infectivity on Vero cells). It is filed as cell-based, chikungunya virus.
Where [12] appears, read: HEK-293 cell viability, 18 h, * = treatment induced <50% cell death.
Where [13] appears, read: 0.5 mg kg−1 per os daily from day 7, infected at day 9, continued 21 days.

pIC50: −log10 of the molar value. Like-named read-outs stand apart in the source and are kept apart here.

A word on the pIC50: it is −log10 of the IC50, conventionally taken in molar units. In general, melting point refers to the temperature of the solid-liquid transition.

Sequence of CLK1 (P49759 whole entry): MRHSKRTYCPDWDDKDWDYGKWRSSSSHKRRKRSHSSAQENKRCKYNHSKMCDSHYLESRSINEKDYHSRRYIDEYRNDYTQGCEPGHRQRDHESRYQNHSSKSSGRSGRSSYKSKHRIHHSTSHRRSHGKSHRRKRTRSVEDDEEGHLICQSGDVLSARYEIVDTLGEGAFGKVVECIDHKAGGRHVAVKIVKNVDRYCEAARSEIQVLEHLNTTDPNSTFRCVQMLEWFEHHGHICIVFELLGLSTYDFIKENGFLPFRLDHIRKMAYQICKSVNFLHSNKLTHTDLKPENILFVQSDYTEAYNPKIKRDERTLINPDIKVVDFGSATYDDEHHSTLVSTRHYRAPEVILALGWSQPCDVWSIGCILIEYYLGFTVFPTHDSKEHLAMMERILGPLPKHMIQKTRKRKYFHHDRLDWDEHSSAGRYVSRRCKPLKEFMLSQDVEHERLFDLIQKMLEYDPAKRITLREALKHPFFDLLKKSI

With `O=c1[nH]c2ccccc2n1C1CCN(CCCC(c2ccc(F)cc2)c2ccc(F)cc2)CC1` [Pimozide], the pIC50 in series [1] (Chikungunya virus, HEK293) is 6.55. Besides, in series [2], the “CHIKV titres in the footpad (replication)” value is recorded as “significantly reduced replication”. Moreover, in series [3], the “antiviral effect on HSV-1” value was “antiviral effect”. The “impact on mouse growth” value in series [4] is “detectable impact on mouse growth”. Moreover, in [5], the “vRNA synthesis (cell-associated vRNA)” value is reported as “significantly reduced vRNA synthesis”; the “viral release in the supernatants (supernatant-associated vRNA)” value (shortened to “viral release in the supernatants”) is recorded as “strongly inhibited viral release”; the “vRNA replication, delayed treatment” value was “only a minor impact on vRNA replication”; the “viral release, delayed treatment” value is “major defect in viral release”. For the same compound, the pIC50 in [6] (Homo sapiens, HEK293, 18 h) is 4.72. In [7], the cell toxicity entry was “no detectable cell toxicity”.

On to `COc1ccc2c(c1)[nH]c1c(/C=C/c3ccccc3)nccc12` [AnnH18, (E)-7-methoxy-1-(2-phenylethen-1-yl)-9H-pyrido[3,4-b]indole], for which the pIC50 in series [1] (Chikungunya virus, HEK293) is 5.99; in [8], 6.24; in series [6] (Homo sapiens, HEK293, 18 h), 5.04.

With `CCCCn1c2cc(OC)c(Cl)cc2c2ccnc(C)c21` [AnnH14, 9-butyl-6-chloro-7-methoxy-1-methyl-9H-pyrido[3,4-b]indole], the pIC50 in [1] (Chikungunya virus, HEK293) was 5.81; in series [8] it was 5.30; in series [6] (Homo sapiens, HEK293, 18 h), 4.98.

With `C/C=C/C/C=C/CCC(=O)[C@H]1O[C@H]1C(N)=O` [Cerulenin], the negative logarithm of the IC50 (pIC50) in series [1] (Chikungunya virus, HEK293) is 5.52. Further, in series [9], the “effect on cell viability” value was “no deleterious effect on cell viability”. Besides, the “genomic and subgenomic vRNA synthesis” value in series [10] is “significant and dose-dependent reduction”. In addition, in series [5], the “vRNA synthesis (cell-associated vRNA)” value is given as “significantly reduced vRNA synthesis”; the “viral release in the supernatants” value is given as “strongly inhibited viral release”; the “vRNA replication, delayed treatment” value is “only a minor impact on vRNA replication”; the “viral release, delayed treatment” value is “major defect in viral release”. Further, the negative-log IC50 (pIC50) in [6] (Homo sapiens, HEK293, 18 h) is 5.12. Besides, the cell toxicity entry in series [7] is reported as “no detectable cell toxicity”.

With `C#CCn1c2c(Br)nccc2c2ccc(Cl)c(Cl)c21` [AnnH80, 1-bromo-7,8-dichloro-9-(prop-2-yn-1-yl)-9H-pyrido[3,4-b]indole], the melting point lay within 190 to 193 °C. Besides, the pIC50 in series [8] is 6.06.

Turning to `CO/C1=C\C(C)=C\[C@@H](C)[C@@H](O)[C@@H](C)C/C(C)=C/C=C/[C@H](OC)[C@@H]([C@@H](C)[C@@H](O)[C@H](C)[C@@]2(O)C[C@@H](O)[C@H](C)[C@@H](C(C)C)O2)OC1=O` [Bafilomycin], the negative-log IC50 (pIC50) in [1] was 9.48; in series [6] (setting [12]) it was 8.52. Besides, the “stage of the viral life cycle affected” value in series [11] (single-cycle CHIKV infection, treatment before or after viral entry) is reported as “specifically blocked CHIKV entry”.

For `CCCCCCCCCCCCCCOc1ccc(C(=O)O)o1` [TOFA, 5-tetradecyloxy-2-furoic acid], in series [1] (Chikungunya virus, HEK293), the pIC50 is 6.82. For the same compound, the “effect on cell viability” value in series [9] is “no deleterious effect on cell viability”. In addition, the “genomic and subgenomic vRNA synthesis” value in series [10] was “significant and dose-dependent reduction”. In series [2], the “CHIKV titres in the footpad (replication)” value is “significantly reduced replication”. Besides, in [4], the “impact on mouse growth” value is on record as “detectable impact on mouse growth”. Moreover, in [5], the “vRNA synthesis (cell-associated vRNA)” value is listed as “significantly reduced vRNA synthesis”; the “viral release in the supernatants” value is “strongly inhibited viral release”; the “vRNA replication, delayed treatment” value is given as “only a minor impact on vRNA replication”; the “viral release, delayed treatment” value is given as “major defect in viral release”. In [6] (Homo sapiens, HEK293, 18 h), the negative-log IC50 (pIC50) was under 4.22. Also, in series [7], the cell toxicity result is “no detectable cell toxicity”.

Turning to `COc1cc2nccc(Oc3ccc(NC(=O)Nc4cc(C)on4)c(Cl)c3)c2cc1OC` [Tivozanib], the pIC50 in [1] (Chikungunya virus, HEK293) was 6.10. In [4] (setting [13]), the body weight gain entry is given as “positive impact on body weight gain”, the “mortality of CHIKV-infected mice” value is listed as “significant reduction in mortality” and the onset of paralysis entry is listed as “protected from the onset of paralysis”. The “CHIKV viral load in organs” value in series [4] (3 days post infection, 0.5 mg kg−1 per os) is “significantly reduced CHIKV viral load”. In [5], the “vRNA synthesis (cell-associated vRNA)” value is listed as “significantly reduced vRNA synthesis”; the “viral release in the supernatants” value is given as “strongly inhibited viral release”; the “vRNA replication, delayed treatment” value was “only a minor impact on vRNA replication”; the “viral release, delayed treatment” value is given as “major defect in viral release”. For the same compound, in [6] (Homo sapiens, HEK293, 18 h), the pIC50 is 5.08. Also, the cell toxicity entry in [7] is recorded as “no detectable cell toxicity”.

For `COc1ccc(-c2ccccc2)cc1NS(=O)(=O)c1cc(Cl)cc(Cl)c1O` [BMS-303141], the “effect on cell viability” value in [9] is “no deleterious effect on cell viability”. In series [10], the “genomic and subgenomic vRNA synthesis” value is “significant and dose-dependent reduction”.

Take KH-CB19: the figures for the pIC50 in series [1] and in series [6] (setting [12]) were 5.47 and 4.96, respectively. The “inhibition of CHIKV infection at early times p.i.” value in series [11] (Supplementary Fig. 5a) was “incomplete inhibition”.
